In patent US20210395239A1 (Hoffmann-La Roche Inc., priority 2018, published 2021):

What follows are compounds tested against T1, human TLR7 (Homo sapiens, UniProt Q9NYK1) (assay: HEK293-Blue-hTLR-7 cells assay (SEAP reporter, R848 stimulation)). Conditions: HEK293-Blue-hTLR7 cells, R848, 20 hrs; read-out: HEK/hTLR7 IC50.
T1 construct: host or cells: HEK293 (HEK-Blue hTLR7)
T1 sequence (Q9NYK1 27-1049): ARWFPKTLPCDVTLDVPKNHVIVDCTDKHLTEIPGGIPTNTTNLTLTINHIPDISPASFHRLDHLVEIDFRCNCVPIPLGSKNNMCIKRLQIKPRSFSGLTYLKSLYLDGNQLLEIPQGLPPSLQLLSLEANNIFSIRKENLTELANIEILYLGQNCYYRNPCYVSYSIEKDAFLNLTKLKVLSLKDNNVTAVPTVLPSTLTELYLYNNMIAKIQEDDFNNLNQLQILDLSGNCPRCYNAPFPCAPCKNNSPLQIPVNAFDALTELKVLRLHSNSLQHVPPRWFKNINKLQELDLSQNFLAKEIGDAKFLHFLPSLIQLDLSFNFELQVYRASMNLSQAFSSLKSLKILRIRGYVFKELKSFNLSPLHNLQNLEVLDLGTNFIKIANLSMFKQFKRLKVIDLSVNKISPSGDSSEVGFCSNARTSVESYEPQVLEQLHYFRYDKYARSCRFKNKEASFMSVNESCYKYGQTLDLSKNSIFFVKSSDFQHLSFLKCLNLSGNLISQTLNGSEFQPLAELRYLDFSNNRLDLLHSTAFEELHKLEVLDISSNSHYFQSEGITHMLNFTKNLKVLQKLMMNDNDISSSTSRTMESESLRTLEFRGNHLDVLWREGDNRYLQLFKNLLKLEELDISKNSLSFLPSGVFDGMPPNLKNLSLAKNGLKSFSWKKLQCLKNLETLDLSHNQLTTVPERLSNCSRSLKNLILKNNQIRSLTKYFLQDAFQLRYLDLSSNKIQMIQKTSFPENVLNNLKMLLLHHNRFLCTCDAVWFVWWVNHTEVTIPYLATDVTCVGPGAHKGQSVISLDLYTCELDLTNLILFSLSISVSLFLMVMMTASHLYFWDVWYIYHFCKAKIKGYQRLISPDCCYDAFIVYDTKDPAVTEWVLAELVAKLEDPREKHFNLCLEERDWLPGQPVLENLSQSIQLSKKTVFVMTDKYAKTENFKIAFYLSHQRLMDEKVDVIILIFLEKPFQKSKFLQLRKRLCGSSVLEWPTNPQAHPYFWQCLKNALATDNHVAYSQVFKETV
Type: cell-based
Description: HEK293-Blue-hTLR-7 Cells Assay:
A stable HEK293-Blue-hTLR-7 cell line was purchased from InvivoGen (Cat. #: hkb-ht1r7, San Diego, Calif., USA). These cells were originally designed for studying the stimulation of human TLR7 by monitoring the activation of NF-κB. A SEAP (secreted embryonic alkaline phosphatase) reporter gene was placed under the control of the IFN-β minimal promoter fused to five NF-κB and AP-1-binding sites. The SEAP was induced by activating NF-κB and AP-1 via stimulating HEK-Blue hTLR7 cells with TLR7 ligands. Therefore the reporter expression was declined by TLR7 antagonist under the stimulation of a ligand, such as R848 (Resiquimod), for incubation of 20 hrs. The cell culture supernatant SEAP reporter activity was determined using QUANTI-Blue™ kit (Cat. #: rep-qb1, Invivogen, San Diego, Ca, USA) at a wavelength of 640 nm, a detection medium that turns purple or blue in the presence of alkaline phosphatase.
HEK293-Blue-hTLR7 cells were incubated at a density of […] cells/mL in a volume of 170 μL in a 96-well plate in Dulbecco's Modified Eagle's medium (DMEM) containing 4.5 g/L glucose, 50 U/mL penicillin, […], […], 2 mM L-glutamine, 10% (v/v) heat-inactivated fetal bovine serum with addition of 20 μL test compound in a serial dilution in the presence of final DMSO at 1% and 10 μL of 20 uM R848 in above DMEM, perform incubation under 37° C. in a CO2 incubator for 20 hrs. Then 20 μL of the supernatant from each well was incubated with 180 μL Quanti-blue substrate solution at 37° C. for 2 hrs and the absorbance was read at 620˜655 nm using a spectrophotometer. The signaling pathway that TLR7 activation leads to downstream NF-κB activation has been widely accepted, and therefore similar reporter assay was modified for evaluating TLR7 antagonist.
`Cc1ccc(N2C[C@H](CN3CCN(c4ccnc(N5CC6(CNCCO6)C5)n4)CC3)O[C@H](C)C2)c2nccnc12` [Example 126, 2-[4-[4-[[(2S,6R)-6-methyl-4-(8-methylquinoxalin-5-yl)morpholin-2-yl]methyl]piperazin-1-yl]pyrimidin-2-yl]-5-oxa-2,8-diazaspiro[3.5]nonane] gave an IC50 of 0.021 µM. `COC1CN(c2nccc(N3CCN(C[C@H]4CN(c5ccc(C#N)c6ncccc56)C[C@@H](C)O4)CC3)n2)CC1N` (stereo in doubt) [Example 93, 5-[(2S,6R)-2-[[4-[2-[(3R,4S)-3-amino-4-methoxy-pyrrolidin-1-yl]pyrimidin-4-yl]piperazin-1-yl]methyl]-6-methyl-morpholin-4-yl]quinoline-8-carbonitrile] was tested, and the IC50 was 0.012 µM. With `Cc1cnc(N2CCN(C[C@H]3CN(c4ccc(C#N)c5ncccc45)C[C@@H](C)O3)CC2)nc1N1CCNCC1` [Example 102, 5-[(2R,6S)-2-methyl-6-[[4-(5-methyl-4-piperazin-1-yl-pyrimidin-2-yl)piperazin-1-yl]methyl]morpholin-4-yl]quinoline-8-carbonitrile] the IC50 was 0.018 µM. In the case of `[2H]c1ccc2c(N3C[C@H](CN4CC(c5ccc(N6C[C@@H](N)[C@H](OC)C6)nc5)C4)O[C@H](C)C3)ccc(C#N)c2n1` [Example 149, 5-[(2S,6R)-2-[[3-[6-[(3R,4R)-3-amino-4-methoxy-pyrrolidin-1-yl]-3-pyridyl]azetidin-1-yl]methyl]-6-methyl-morpholin-4-yl]-2-deuterio-quinoline-8-carbonitrile], the IC50 is reported as 0.016 µM. Work on `CO[C@H]1CN(c2cc(C)nc(N3CCN(C[C@H]4CN(c5ccc(C#N)c6nccnc56)C[C@@H](C)O4)CC3)n2)C[C@H]1N` [Example 122, 8-[(2S,6R)-2-[[4-[4-[(3R,4S)-3-amino-4-methoxy-pyrrolidin-1-yl]-6-methyl-pyrimidin-2-yl]piperazin-1-yl]methyl]-6-methyl-morpholin-4-yl]quinoxaline-5-carbonitrile] yielded an IC50 of 0.005 µM. For `[2H]c1ccc2c(N3C[C@H](CN4CC(c5ccc(N6CC(C)(N)C6)nc5)C4)O[C@H](C)C3)ccc(C#N)c2n1` [Example 138, 5-[(2S,6R)-2-[[3-[6-(3-amino-3-methyl-azetidin-1-yl)-3-pyridyl]azetidin-1-yl]methyl]-6-methyl-morpholin-4-yl]-2-deuterio-quinoline-8-carbonitrile], the IC50 was 0.005 µM. For `Cc1cc(N2C[C@@H](N)[C@@H](F)C2)nc(N2CCN(C[C@H]3CN(c4ccc(C#N)c5nccnc45)C[C@@H](C)O3)CC2)n1` [Example 115, 8-[(2S,6R)-2-[[4-[4-[(3R,4S)-3-amino-4-fluoro-pyrrolidin-1-yl]-6-methyl-pyrimidin-2-yl]piperazin-1-yl]methyl]-6-methyl-morpholin-4-yl]quinoxaline-5-carbonitrile], the IC50 was 0.004 µM. With `[2H]c1ccc2c(N3C[C@H](CN4CC(c5cccc(N6CC(C)(N)C6)n5)C4)O[C@H](C)C3)ccc(C#N)c2n1` [Example 159, 5-[(2S,6R)-2-[[3-[6-(3-amino-3-methyl-azetidin-1-yl)-2-pyridyl]azetidin-1-yl]methyl]-6-methyl-morpholin-4-yl]-2-deuterio-quinoline-8-carbonitrile] the IC50 was 0.03 µM. `Cc1cc(N2C[C@@H](N)[C@](C)(O)C2)nc(N2CCN(C[C@H]3CN(c4ccc(C#N)c5nccnc45)C[C@@H](C)O3)CC2)n1` [Example 125, 8-[(2S,6R)-2-[[4-[4-[(3R,4R)-4-amino-3-hydroxy-3-methyl-pyrrolidin-1-yl]-6-methyl-pyrimidin-2-yl]piperazin-1-yl]methyl]-6-methyl-morpholin-4-yl]quinoxaline-5-carbonitrile] gave an IC50 of 0.047 µM. With `C[C@@H]1CN(c2ccc(C#N)c3nccnc23)C[C@H](CN2CCN(c3nccc(N4CC(N)C4)n3)CC2)O1` [Example 118, 8-[(2S,6R)-2-[[4-[4-(3-aminoazetidin-1-yl)pyrimidin-2-yl]piperazin-1-yl]methyl]-6-methyl-morpholin-4-yl]quinoxaline-5-carbonitrile] the IC50 was 0.004 µM. With `C[C@@H]1CN(c2ccc(C#N)c3ncccc23)C[C@H](CN2CCN(c3ncc(F)c(N4CCNCC4)n3)CC2)O1` [Example 94, 5-[(2S,6R)-2-[[4-(5-fluoro-4-piperazin-1-yl-pyrimidin-2-yl)piperazin-1-yl]methyl]-6-methyl-morpholin-4-yl]quinoline-8-carbonitrile] the IC50 was 0.013 µM. `C[C@@H]1CN(c2ccc(C#N)n3nccc23)C[C@H](CN2CC(c3ccc(N4CC(C)(N)C4)nc3)C2)O1` [Example 157, 4-[(2S,6R)-2-[[3-[6-(3-amino-3-methyl-azetidin-1-yl)-3-pyridyl]azetidin-1-yl]methyl]-6-methyl-morpholin-4-yl]pyrazolo[1,5-a]pyridine-7-carbonitrile] was tested, and the IC50 was 0.008 µM. `Cc1ccc(N2C[C@H](CN3CCN(c4ccnc(N5C[C@H]6NCCO[C@@H]6C5)n4)CC3)O[C@H](C)C2)c2nccnc12` [Example 129, (4aR,7aR)-6-[4-[4-[[(2S,6R)-6-methyl-4-(8-methylquinoxalin-5-yl)morpholin-2-yl]methyl]piperazin-1-yl]pyrimidin-2-yl]-3,4,4a,5,7,7a-hexahydro-2H-pyrrolo[3,4-b][1,4]oxazine] was tested, and the IC50 was 0.02 µM. `COC1CCN(c2nccc(N3CCN(C[C@H]4CN(c5ccc(C#N)c6ncccc56)C[C@@H](C)O4)CC3)n2)CC1N` (stereo partly drawn) [Example 109, 5-[(2S,6R)-2-[[4-[2-(3-amino-4-methoxy-1-piperidyl)pyrimidin-4-yl]piperazin-1-yl]methyl]-6-methyl-morpholin-4-yl]quinoline-8-carbonitrile] was tested, and the IC50 was 0.016 µM. `Cc1cc(N2CC(N)C2)nc(N2CCN(C[C@H]3CN(c4ccc(C#N)c5nccnc45)C[C@@H](C)O3)CC2)n1` [Example 123, 8-[(2S,6R)-2-[[4-[4-(3-aminoazetidin-1-yl)-6-methyl-pyrimidin-2-yl]piperazin-1-yl]methyl]-6-methyl-morpholin-4-yl]quinoxaline-5-carbonitrile] showed an IC50 of 0.003 µM. `[2H]c1ccc2c(N3C[C@H](CN4CC(c5cnc(N6CC(C)(N)C6)cc5C)C4)O[C@H](C)C3)ccc(C#N)c2n1` [Example 145, 5-[(2S,6R)-2-[[3-[6-(3-amino-3-methyl-azetidin-1-yl)-4-methyl-3-pyridyl]azetidin-1-yl]methyl]-6-methyl-morpholin-4-yl]-2-deuterio-quinoline-8-carbonitrile] was tested, and the IC50 was 0.014 µM. `C[C@@H]1CN(c2ccc(C#N)c3ncccc23)C[C@H](CN2CCN(c3ccnc(N4C[C@@H](N)[C@@H](F)C4)n3)CC2)O1` [Example 101, 5-[(2S,6R)-2-[[4-[2-[(3R,4S)-3-amino-4-fluoro-pyrrolidin-1-yl]pyrimidin-4-yl]piperazin-1-yl]methyl]-6-methyl-morpholin-4-yl]quinoline-8-carbonitrile] showed an IC50 of 0.011 µM. Work on `C[C@@H]1CN(c2ccc(C#N)c3ncccc23)C[C@H](CN2CCN(c3ccc(CN)cc3)CC2)O1` [Example 5, 5-[(2S,6R)-2-[[4-[4-(aminomethyl)phenyl]piperazin-1-yl]methyl]-6-methyl-morpholin-4-yl]quinoline-8-carbonitrile] yielded an IC50 of 0.054 µM.
